In US20250296909A1, “NOVEL BENZENE DERIVATIVE AND IMMUNOSUPPRESSION-RELATED USE THEREOF” (PROVIBIO CO., LTD., priority 2021, published 2025):

Assays:
spleen T cells = assay: T cell proliferation inhibition (CFSE, FACS), CD3/CD28-activated spleen T cells; assay type: cell-based, C57BL/6 mice; conditions: Mus musculus, T-cell, 72 h, Table 2, 3 days, relative to CD3/CD28+DMSO, read-out: Proliferation inhibition rate (%)
Description: To investigate whether the compounds obtained in the Preparation Example have an inhibitory effect on T cell proliferation, the T cell proliferation was determined ex vivo using the fluorescent dye carboxyfluorescein diacetate succinimidyl ester (CFSE), which binds to intracellular molecules by covalent bonds.
Spleens were harvested and minced from C57BL/6 mice at 7 weeks of age, and then single cells were isolated using a strainer (40 μm pore size, SPL). Red blood cells were removed using ACK (Ammonium-Chloride-Potassium) lysis buffer to isolate only leukocytes. Subsequently, CD90.2 microbeads (130-121-278, Miltenyi Biotech.) were added, and subjected to react at 4° C. for 20 minutes. After that, spleen T cells were isolated using a MACS Magnetic Stand and LS column. The isolated T cells from the spleen were resuspended in 1 mL of Free media (RPMI-1640+200 U/mL penicillin+200 μg/mL streptomycin), followed by the addition of 0.3 μL of CFSE (10 mM), and reacted at 37° C. for 5 minutes. Subsequently, 10 mL of Free media was added to stop the reaction, and the cells were centrifuged to obtain the cell pellet. RPMI 1640 medium containing 10% FBS, 100 U/mL penicillin, and 100 μg/mL streptomycin was added to suspend the cells, and 2×10^5 cells per well were seeded into a 96-well plate and T cells were activated by treatment with CD3 and CD28 antibodies (each at 0.5 μg/mL).
The compound diluted in DMSO was treated in triplicate at concentrations of 10 μM, 30 μM, and 50 μM, respectively. After incubation at 37° C. with 5% CO2 for 3 days, cell proliferation levels were determined using a FACS Canto machine.
In the FACS graph of FIG. 1, the y-axis represents the quantity (number) of cells, while the x-axis represents the fluorescence level of the cells. […] This reduction in CFSE fluorescence results in a leftward shift along the x-axis in the graph. This indicates cell proliferation.
To collectively indicate the proliferation inhibition rate for the experimental results, the relative value of the proliferation amount after compound administration to the proliferation amount after CD3/CD28+DMSO administration was calculated. Subsequently, it was converted into an inhibition amount and expressed as a percentage, thereby determining the proliferation inhibition rate. Specifically, the proliferation inhibition rate was calculated as follows: […]

[1] = test system: T lymphocyte cell line Jurkat E6-1; assay: Cytotoxicity experiment (CCK-8, relative cell survival); assay type: cell-based; conditions: 24 hours, untreated cells = 100%
Description: To evaluate the cytotoxicity of the compound according to the present invention, the following experiment was conducted.
The T lymphocyte cell line Jurkat E6-1, purchased from the Korean Cell Line Bank, was cultured in RPMI-1640 medium comprising 10% FBS, 100 U/mL penicillin, and 100 μg/mL streptomycin. After culturing, the cells were harvested and centrifuged at 1,300 rpm for 5 minutes. After removal of the supernatant, the cells were resuspended in the same medium at a concentration of approximately 2.2×10^5 cells/mL, and 90 μL of the cell suspension was distributed per well into a 96-well plate (Costar 96 well cell culture plate, Corning). After treating 10 μL of each compound at different concentrations onto the respective wells of the plate, it was cultured for 24 hours at 37° C. in a 5% CO2 incubator. Subsequently, 10 μL of CCK-8 was added to each well, and it was cultured again for 2 hours at 37° C. in a 5% CO2 incubator. Absorbance was then measured at 450 nm to determine the relative cell survival rate compared to untreated cells, as shown in Table 4.
The values listed in Table 4 represent the relative cell survival rates in the groups treated with each compound at different concentrations, with the cell survival rate of untreated cells set as 100%.

Row | Structure (SMILES) | inhibition at 10 µM (spleen T cells) [%] | inhibition at 30 µM (spleen T cells) [%] | inhibition at 50 µM (spleen T cells) [%] | Relative cell survival rate (%) ([1]; 10 μM) | Relative cell survival rate (%) ([1]; 20 μM) | Relative cell survival rate (%) ([1]; 30 μM) | Relative cell survival rate (%) ([1]; 50 μM)
1 | CCCCCCCCCCCCNC(=O)c1ccccc1Nc1cccc(C)c1C [Compound 51] | 100 | 100 | 100 | 99 | 94 | 92 | 90
2 | CCCCCCCCCCCCNC(=O)c1ccccc1-c1ncc[nH]1 [Compound 52] | 42 | 95 | 100 | 88 | 85 | 84 | 84
3 | CCCCCCCCCCCCNC(=O)c1ccccc1C(=O)NC1CCCCC1 [Compound 53] | 22 | 65 | 85 | 96 | 97 | 98 | 95
4 | CCCCCCCCCCCCNS(=O)(=O)c1c(F)cccc1F [Compound 54] | 55 | 60 | 77 | 89 | 83 | 77 | 76
5 | CCCCCCCCCCCCNC(=O)c1ccc(F)c(F)c1F [Compound 55] | 52 | 82 | 95 | 115 | 110 | 108 | 105
6 | C=Cc1ccccc1C(=O)NCCCCCCCCCCCC [Compound 57] | 93 | 100 | 100 | 108 | 108 | 104 | 101
7 | CCCCCCCCCCCCNS(=O)(=O)c1ccccc1[N+](=O)[O-] [Compound 58] | 39 | 51 | 68 | 100 | 98 | 97 | 94
8 | CCCCCCCCCCCCNC(=O)c1ccccc1Oc1ccccc1 [Compound 61] | 16 | 86 | 98 | 96 | 94 | 76 | 74
9 | CCCCCCCCCCCCNC(=O)c1ccccc1I [Compound 63] | 30 | 78 | 89 | 70 | 78 | 75 | 79
10 | CCCCCCCCCCCCNC(=O)c1c(F)cccc1[N+](=O)[O-] [Compound 64] | 79 | 100 | 100 | 91 | 87 | 87 | 87
11 | CCCCCCCCCCCCNC(=O)c1ccccc1NC [Compound 65] | 39 | 43 | 77 | 87 | 84 | 86 | 77
